≈ marks a conversion by molar mass, not a printed value. Read-outs that look alike come from different tables or passages of the source.
Columns and labels:
[1] = biological target: T1, CCK-B (guinea pig cortex) (Cavia porcellus, UniProt H0VZC5); experiment: [3H]L-365,260 CCK-B selective antagonist ligand binding, brain membranes; conditions: for IC50: read-out: CCK binding inhibition - IC50, [3H]L-365,260
T1 construct: guinea pig cortical preparations; from tissue; host or cells: guinea pig brain cortex membranes
T1 sequence (H0VZC5 1-426): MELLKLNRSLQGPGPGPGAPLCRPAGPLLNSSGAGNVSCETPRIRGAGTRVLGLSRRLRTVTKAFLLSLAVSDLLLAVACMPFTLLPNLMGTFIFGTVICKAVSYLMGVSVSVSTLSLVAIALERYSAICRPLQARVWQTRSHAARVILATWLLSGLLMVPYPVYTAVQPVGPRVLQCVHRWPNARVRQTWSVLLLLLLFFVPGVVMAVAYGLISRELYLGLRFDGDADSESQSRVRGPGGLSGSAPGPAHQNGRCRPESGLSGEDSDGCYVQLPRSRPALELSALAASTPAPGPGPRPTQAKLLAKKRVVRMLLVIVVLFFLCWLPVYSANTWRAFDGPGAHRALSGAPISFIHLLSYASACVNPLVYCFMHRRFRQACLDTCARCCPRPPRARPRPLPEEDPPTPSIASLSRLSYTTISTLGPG
Protocol: (§1) The resulting supernatant was re-spun at 20,000×g for 20 minutes. […] Incubations were for 40 minutes at 4° C. and were terminated by filtration and washing with ice cold 100 mM saline. […] Incubations were for 30 minutes at room temperature and were terminated by filtration over GF/C filters and washing with 100 mM NaCl.

[2] = system: Micrococcus luteus (Mb 1101, ATCC 9341); experiment: Agar diffusion disc assay, Micr 1101; type: cell-based; conditions: Micrococcus luteus; for MIC: read-out: Agar Diffusion MIC versus Micrococcus luteus; for zone of inhibition at 10 µg/disc: 10.0 μg/disc; for zone of inhibition at 2.5 µg/disc: 2.50 μg/disc; for zone of inhibition at 5 µg/disc: 5.00 μg/disc
Protocol: (§2) Cultures employed in evaluating antimicrobial activity included plant pathogens, human and animal opportunistic pathogens and selected laboratory strains having specific-antibiotic sensitivities or chromosomal or R-plasmid-mediated resistances. […] The agar diffusion MIC's were determined using the method described by Barry in Anitbiotics in Laboratory Medicine, 2nd Ed., Ed. V. Lorian, pp. 1-63, William & Wilkins, Baltimore, 1986. Each test compound was dissolved in methanol to a concentration of 1 mg/ml. Serial dilutions of these compounds were also made to determine an agar diffusion MIC. 20 μl of each dilution was pipetted on to 6 mm paper discs, air dried and placed onto the surface of an agar plate seeded with the appropriate bacteria (~10^6 cfu). Seeded agar plates were incubated overnight (~18 hours) at 25° C. Zone sizes were measured to the nearest mm. Each compound was tested in triplicate and the results shown represent the mean.

[3] = system: Bacillus sp. (Mb 633); experiment: Agar diffusion disc assay, Baci 633; type: cell-based; conditions: Bacillus, 18 h
Protocol: as §2

[4] = biological target: T2, CCK-A (rat pancreas) (Rattus norvegicus, UniProt P30551); experiment: [125I]BHCCK-8 radioligand binding, rat pancreatic preparation; conditions: read-out: CCK binding inhibition - IC50, [125I]BHCCK
T2 construct: from tissue; host or cells: rat pancreas
T2 sequence (P30551 1-444): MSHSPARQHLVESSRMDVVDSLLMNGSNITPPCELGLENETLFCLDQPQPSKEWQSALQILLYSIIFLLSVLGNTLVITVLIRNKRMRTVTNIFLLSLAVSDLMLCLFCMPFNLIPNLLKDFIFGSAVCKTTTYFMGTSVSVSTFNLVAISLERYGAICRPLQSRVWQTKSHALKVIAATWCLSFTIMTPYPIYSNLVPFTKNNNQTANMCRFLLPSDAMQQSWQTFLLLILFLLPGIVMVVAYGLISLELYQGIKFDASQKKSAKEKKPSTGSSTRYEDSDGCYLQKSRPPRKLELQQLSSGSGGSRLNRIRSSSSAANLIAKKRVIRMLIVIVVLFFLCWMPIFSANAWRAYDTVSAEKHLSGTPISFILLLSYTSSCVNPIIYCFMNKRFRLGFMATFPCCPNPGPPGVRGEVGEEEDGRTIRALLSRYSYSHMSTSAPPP
Protocol: as §1

[5] = biological target: T1, CCK-B (guinea pig cortex); experiment: [125I]BHCCK-8 radioligand binding, guinea pig cortical preparation; conditions: read-out: CCK binding inhibition - IC50, [125I]BHCCK
Protocol: as §1

[6] = system: En terobacter aergenes (Mb 835); experiment: Agar diffusion disc assay, Ent 835; type: cell-based; conditions: 18 h; @ 20 g/disc; read-out: Inhibition zone diameter, Ent 835
Protocol: as §2

[7] = system: Staphylococcus aureus (Mb 2983); experiment: Agar diffusion disc assay, Sta 2983; type: cell-based; conditions: Staphylococcus aureus, 18 h; @ 20 g/disc; read-out: Inhibition zone diameter, Sta 2983
Protocol: as §2

[8] = system: Escherichia coli (Mb 1418); experiment: Agar diffusion disc assay, Coli 1418; type: cell-based; conditions: Escherichia coli, 18 h; @ 20 g/disc; read-out: Inhibition zone diameter, Coli 1418
Protocol: as §2

[9] = system: Pseudomonas stutzeri (Mb 1231, ATCC 11607); experiment: Agar diffusion disc assay, Pseu 1231; type: cell-based; conditions: Stutzerimonas stutzeri, ATCC11607, 18 h; @ 20 g/disc; read-out: Inhibition zone diameter, Pseu 1231
Protocol: as §2

[10] = system: Streptococcus agalactiae (Mb 2875); experiment: Agar diffusion disc assay, Str 2875; type: cell-based; conditions: Streptococcus agalactiae, 18 h; @ 20 g/disc; read-out: Inhibition zone diameter, Str 2875
Protocol: as §2

[11] = biological target: T2, CCK-A (rat pancreas); experiment: [3H]L-364,718 CCK-A selective antagonist ligand binding, pancreas; conditions: for IC50: read-out: CCK binding inhibition - IC50, [3H]L-364,718
Protocol: as §1

[12] = system: Staphylococcus aureus (Mb 108, ATCC 6538P); experiment: Agar diffusion disc assay, Sta 108; type: cell-based; conditions: Staphylococcus aureus, ATCC6538P, 18 h; @ 20 g/disc; read-out: Inhibition zone diameter, Sta 108
Protocol: as §2

[13] = system: Streptococcus faecium (Mb 2820); experiment: Agar diffusion disc assay, Str 2820; type: cell-based; conditions: Enterococcus faecium, 18 h; @ 20 g/disc; read-out: Inhibition zone diameter, Str 2820
Protocol: as §2

[14] = system: Corynebacterium pseudodiphtheriticum (Mb 261, ATCC 9742); experiment: Agar diffusion disc assay, Cory 261; type: cell-based; conditions: Corynebacterium pseudodiphtheriticum, ATCC9742, 18 h; @ 20 g/disc; read-out: Inhibition zone diameter, Cory 261
Protocol: as §2

[15] = system: Bacillus subtilis (Mb 964, ATCC 6633); experiment: Agar diffusion disc assay, Subt 964; type: cell-based; conditions: Bacillus subtilis, ATCC6633, 18 h; @ 20 g/disc; read-out: Inhibition zone diameter, Subt 964
Protocol: as §2

[16] = system: Salmonella gallinarum (Mb 1287); experiment: Agar diffusion disc assay, Salm 1287; type: cell-based; conditions: Salmonella enterica, GALLINARUM, 18 h; @ 20 g/disc; read-out: Inhibition zone diameter, Salm 1287
Protocol: as §2

[17] = ATCC9341, 18 h, @ 20 g/disc, read-out: Inhibition zone diameter, Micr 1101
[18] = ATCC9341, 25° C., ~18 hours, read-out: Mean of triplicate zone size versus Micrococcus luteus
[19] = ATCC9341, 20.0 μg/disc, 25° C., ~18 hours, read-out: Mean of triplicate zone size versus Micrococcus luteus
[20] = @ 20 g/disc, read-out: Inhibition zone diameter, Baci 633
[21] = read-out: Inhibition zone diameter, Baci 633, @ 20 g/disc

SMILES	A.R. = agonist ratio = IC50([3H]L365,260)/IC50([125I]CCK) [1]	IC50 [1] [µM]	zone of inhibition at 20 µg/disc [2, 17] [mm]	MIC ([2]; ATCC9341, 18 h) [µM]	zone of inhibition at 10 µg/disc [2, 18] [mm]	zone of inhibition at 20 µg/disc [2, 19] [mm]	zone of inhibition at 20 µg/disc [3, 20] [mm]	IC50 [4] [nM]	IC50 [5] [nM]	zone of inhibition at 20 µg/disc [6] [mm]	zone of inhibition at 20 µg/disc [7] [mm]	zone of inhibition at 20 µg/disc [8] [mm]	zone of inhibition at 20 µg/disc [9] [mm]	zone of inhibition at 20 µg/disc [10] [mm]	IC50 [11] [µM]	zone of inhibition at 20 µg/disc [12] [mm]	zone of inhibition at 20 µg/disc [13] [mm]	zone of inhibition at 20 µg/disc [14] [mm]	zone of inhibition at 20 µg/disc [15] [mm]	zone of inhibition at 20 µg/disc [16] [mm]	also measured
CC1=C\[C@@H](OC(=O)c2ccccc2)CC(=O)Cc2nc(co2)C(=O)N2CCC=C2C(=O)O[C@H](C(C)C)[C@H](C)/C=C/C(=O)NC\C=C\1 [Example 6]	2	0.19	8	0.003 (≈ 0.00189 µg/mL)	10	9	0	2300	96	0	0	0	0	0	> 3	0	0	0	0	0	zone of inhibition at 40 µg/disc ([2]; ATCC9341, 40.0 μg/disc, 25° C., ~18 hours, read-out: Mean of triplicate zone size versus Micrococcus luteus): 10 mm; zone of inhibition at 80 µg/disc ([2]; ATCC9341, 80.0 μg/disc, 25° C., ~18 hours, read-out: Mean of triplicate zone size versus Micrococcus luteus): 10 mm; zone of inhibition at 160 µg/disc ([2]; ATCC9341, 160 μg/disc, 25° C., ~18 hours, read-out: Mean of triplicate zone size versus Micrococcus luteus): 11 mm
CC1=C\[C@@H](OC(=O)Nc2ccccc2[N+](=O)[O-])CC(=O)Cc2nc(co2)C(=O)N2CCC=C2C(=O)O[C@H](C(C)C)[C@H](C)/C=C/C(=O)NC\C=C\1 [Example 8]	10	3.1	16	0.019 (≈ 0.0131 µg/mL)	16	16	0	> 3000	300	0	0	0	0	0	> 3	7	0	9	0	0	zone of inhibition at 1.25 µg/disc ([2]; ATCC9341, 1.25 μg/disc, 25° C., ~18 hours, read-out: Mean of triplicate zone size versus Micrococcus luteus): 12 mm; zone of inhibition at 2.5 µg/disc [2, 18]: 15 mm; zone of inhibition at 5 µg/disc [2, 18]: 15 mm
CCC(=O)O[C@@H]1/C=C(C)/C=C/CNC(=O)/C=C/[C@@H](C)[C@@H](C(C)C)OC(=O)C2=CCCN2C(=O)c2coc(n2)CC(=O)C1 [Example 3]	2	1	0	2.51 (≈ 1.46 µg/mL)	17	19	–	> 3000	600	0	12	0	0	0	> 3	0	0	0	21	0	zone of inhibition at 2.5 µg/disc [2, 18]: 7 mm; zone of inhibition at 5 µg/disc [2, 18]: 13 mm; zone of inhibition at 20 µg/disc [3, 21]: 11 mm
CC(=O)OC1=Cc2nc(co2)C(=O)N2CCC=C2C(=O)O[C@H](C(C)C)[C@H](C)/C=C/C(=O)NC/C=C/C(C)=C/[C@@H](OC(C)=O)C1 [Example 1]	> 25	> 3	17	1.92 (≈ 1.17 µg/mL)	15	16	0	> 3000	800	0	0	0	0	0	> 3	9	0	14	0	0	percentage in parentheses beside >3.0, [3H]L-365,260 (inhibition at top concentration, not defined) ([1]; beside IC50 >3.0): 13%; zone of inhibition at 5 µg/disc [2, 18]: 12 mm
CC1=C\[C@@H](OC(=O)Nc2cccc(C)c2)CC(=O)Cc2nc(co2)C(=O)N2CCC=C2C(=O)O[C@H](C(C)C)[C@H](C)/C=C/C(=O)NC\C=C\1 [Example 12]	7.5	3	9	> 243	–	–	–	1900	400	0	0	0	0	0	8	0	0	0	0	0	zone of inhibition at 20 µg/disc [3, 21]: 0 mm; A.R. = agonist ratio ([11]; [3H]L-364,718 / [125I]BHCCK): 4.2

Reference: patent US5242938A, “Derivatives of virginiamycin M1” (Merck & Co., Inc., priority 1992, dated 1993)
